Experimental data as given in the supplement of paper PMC10307832.

Tests used:
Experiment in all cases: relative viability (nuclei count vs DMSO), 5 days (fraction); higher = more cells survive
NCI-H2170 = system: NCI-H2170
Outline: (§1)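 Lung cancer cell lines, seeded in 1536-well plates, were treated the following day by pin tool with a single drug or with five library-drug doses (not always all listed) in √10 steps on top of a fixed anchor-drug dose. Cells were fixed and nuclei stained in one step after 5 days, and nuclei were counted. Relative viability is the nuclei count for treated wells divided by that for vehicle wells, reported as medians of duplicate plates.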

NCI-H2087 = system: NCI-H2087
Outline: as §1

HCC-78 = system: HCC-78
Outline: as §1

LOU-NH91 = system: LOU-NH91
Outline: as §1

NCI-H460 = system: NCI-H460
Outline: as §1

NCI-H1944 = system: NCI-H1944
Outline: as §1

RERF-LC-KJ = system: RERF-LC-KJ
Outline: as §1

NCI-H1651 = system: NCI-H1651
Outline: as §1

NCI-H1395 = system: NCI-H1395
Outline: as §1

CAL-12T = system: CAL-12T
Outline: as §1

HCC-366 = system: HCC-366
Outline: as §1

PC-3 [JPC-3] = system: PC-3 [JPC-3]
Outline: as §1

ABC-1 = system: ABC-1
Outline: as §1

NCI-H3122 = system: NCI-H3122
Outline: as §1

LU99A = system: LU99A
Outline: as §1

LC-2-ad = system: LC-2-ad
Outline: as §1

NCI-H1755 = system: NCI-H1755
Outline: as §1

ChaGo-K-1 = system: ChaGo-K-1
Outline: as §1

NCI-H2405 = system: NCI-H2405
Outline: as §1

NCI-H1793 = system: NCI-H1793
Outline: as §1

Work on `O=c1cc(-c2cccc3c2Sc2ccccc2S3)oc(N2CCOCC2)c1` + NC(=O)Nc1cc(-c2cccc(F)c2)sc1C(=O)N[C@H]1CCCNC1 [AZD7762] (partner 0.2 µM) yielded a relative viability (NCI-H2170; first compound 0.08 µM) of 0.842, a relative viability (NCI-H2170; first compound 0.253 µM) of 0.868 and a relative viability (NCI-H2170; first compound 0.8 µM) of 0.996. For the same compound, the relative viability (NCI-H2170; first compound 2.53 µM) was 0.792, the relative viability (NCI-H2170; first compound 8 µM) was 0.804 and the relative viability (NCI-H2087; first compound 0.08 µM) was 1.25. For the same compound, the relative viability (NCI-H2087; first compound 0.253 µM) was 1.46, the relative viability (NCI-H2087; first compound 0.8 µM) was 1.07 and the relative viability (NCI-H2087; first compound 2.53 µM) was 1.31. The relative viability (NCI-H2087; first compound 8 µM) was 1.25, the relative viability (HCC-78; first compound 0.08 µM) was 0.624 and the relative viability (HCC-78; first compound 0.253 µM) was 0.643. The relative viability (HCC-78; first compound 0.8 µM) was 0.472, the relative viability (HCC-78; first compound 2.53 µM) was 0.614 and the relative viability (HCC-78; first compound 8 µM) was 0.655. It also gave a relative viability (LOU-NH91; first compound 0.08 µM) of 0.764, a relative viability (LOU-NH91; first compound 0.253 µM) of 0.778 and a relative viability (LOU-NH91; first compound 0.8 µM) of 0.697. For the same compound, the relative viability (LOU-NH91; first compound 2.53 µM) was 0.714, the relative viability (LOU-NH91; first compound 8 µM) was 0.786 and the relative viability (NCI-H460; first compound 0.08 µM) was 0.742. The relative viability (NCI-H460; first compound 0.253 µM) was 0.695, the relative viability (NCI-H460; first compound 0.8 µM) was 0.669 and the relative viability (NCI-H460; first compound 2.53 µM) was 0.431. It also gave a relative viability (NCI-H460; first compound 8 µM) of 0.685, a relative viability (NCI-H1944; first compound 0.08 µM) of 0.54 and a relative viability (NCI-H1944; first compound 0.253 µM) of 0.456. The relative viability (NCI-H1944; first compound 0.8 µM) was 0.48, the relative viability (NCI-H1944; first compound 2.53 µM) was 0.55 and the relative viability (NCI-H1944; first compound 8 µM) was 0.51. The relative viability (RERF-LC-KJ; first compound 0.08 µM) was 0.913, the relative viability (RERF-LC-KJ; first compound 0.253 µM) was 1.05 and the relative viability (RERF-LC-KJ; first compound 0.8 µM) was 0.846. The relative viability (RERF-LC-KJ; first compound 2.53 µM) was 0.977, the relative viability (RERF-LC-KJ; first compound 8 µM) was 1.02 and the relative viability (NCI-H1651; first compound 0.08 µM) was 0.452. For the same compound, the relative viability (NCI-H1651; first compound 0.253 µM) was 0.538, the relative viability (NCI-H1651; first compound 0.8 µM) was 0.44 and the relative viability (NCI-H1651; first compound 2.53 µM) was 0.389. For the same compound, the relative viability (NCI-H1651; first compound 8 µM) was 0.425, the relative viability (NCI-H1395; first compound 0.08 µM) was 0.384 and the relative viability (NCI-H1395; first compound 0.253 µM) was 0.395. The relative viability (NCI-H1395; first compound 0.8 µM) was 0.378, the relative viability (NCI-H1395; first compound 2.53 µM) was 0.373 and the relative viability (NCI-H1395; first compound 8 µM) was 0.418. For the same compound, the relative viability (CAL-12T; first compound 0.08 µM) was 0.585, the relative viability (CAL-12T; first compound 0.253 µM) was 0.555 and the relative viability (CAL-12T; first compound 0.8 µM) was 0.601. The relative viability (CAL-12T; first compound 2.53 µM) was 0.626, the relative viability (CAL-12T; first compound 8 µM) was 0.642 and the relative viability (HCC-366; first compound 0.08 µM) was 0.258. The relative viability (HCC-366; first compound 0.253 µM) was 0.32, the relative viability (HCC-366; first compound 0.8 µM) was 0.302 and the relative viability (HCC-366; first compound 2.53 µM) was 0.118. The relative viability (HCC-366; first compound 8 µM) was 0.222, the relative viability (PC-3 [JPC-3]; first compound 0.08 µM) was 0.721 and the relative viability (PC-3 [JPC-3]; first compound 0.253 µM) was 0.745. It also gave a relative viability (PC-3 [JPC-3]; first compound 0.8 µM) of 0.758, a relative viability (PC-3 [JPC-3]; first compound 2.53 µM) of 0.766 and a relative viability (PC-3 [JPC-3]; first compound 8 µM) of 0.728. The relative viability (ABC-1; first compound 0.08 µM) was 0.738, the relative viability (ABC-1; first compound 0.253 µM) was 0.7 and the relative viability (ABC-1; first compound 0.8 µM) was 0.714. For the same compound, the relative viability (ABC-1; first compound 2.53 µM) was 1, the relative viability (ABC-1; first compound 8 µM) was 0.875 and the relative viability (NCI-H3122; first compound 0.08 µM) was 1.02. The relative viability (NCI-H3122; first compound 0.253 µM) was 1.06, the relative viability (NCI-H3122; first compound 0.8 µM) was 1.03 and the relative viability (NCI-H3122; first compound 2.53 µM) was 0.933. The relative viability (NCI-H3122; first compound 8 µM) was 1.04, the relative viability (LU99A; first compound 0.08 µM) was 0.28 and the relative viability (LU99A; first compound 0.253 µM) was 0.349. It also gave a relative viability (LU99A; first compound 0.8 µM) of 0.38, a relative viability (LU99A; first compound 2.53 µM) of 0.309 and a relative viability (LU99A; first compound 8 µM) of 0.456. The relative viability (LC-2-ad; first compound 0.08 µM) was 0.805, the relative viability (LC-2-ad; first compound 0.253 µM) was 0.944 and the relative viability (LC-2-ad; first compound 0.8 µM) was 0.853. For the same compound, the relative viability (LC-2-ad; first compound 2.53 µM) was 0.741, the relative viability (LC-2-ad; first compound 8 µM) was 0.797 and the relative viability (NCI-H1755; first compound 0.08 µM) was 0.535. For the same compound, the relative viability (NCI-H1755; first compound 0.253 µM) was 0.453, the relative viability (NCI-H1755; first compound 0.8 µM) was 0.439 and the relative viability (NCI-H1755; first compound 2.53 µM) was 0.566. The relative viability (NCI-H1755; first compound 8 µM) was 0.418, the relative viability (ChaGo-K-1; first compound 0.08 µM) was 0.827 and the relative viability (ChaGo-K-1; first compound 0.253 µM) was 0.942. The relative viability (ChaGo-K-1; first compound 0.8 µM) was 0.779, the relative viability (ChaGo-K-1; first compound 2.53 µM) was 0.889 and the relative viability (ChaGo-K-1; first compound 8 µM) was 0.975. It also gave a relative viability (NCI-H2405; first compound 0.08 µM) of 0.691, a relative viability (NCI-H2405; first compound 0.253 µM) of 0.808 and a relative viability (NCI-H2405; first compound 0.8 µM) of 0.731. The relative viability (NCI-H2405; first compound 2.53 µM) was 0.64, the relative viability (NCI-H2405; first compound 8 µM) was 0.661 and the relative viability (NCI-H1793; first compound 0.08 µM) was 0.299. For the same compound, the relative viability (NCI-H1793; first compound 0.253 µM) was 0.48, the relative viability (NCI-H1793; first compound 0.8 µM) was 0.458 and the relative viability (NCI-H1793; first compound 2.53 µM) was 0.182. It also gave a relative viability (NCI-H1793; first compound 8 µM) of 0.377.
